Like-named read-outs stand apart in the source and are kept apart here. One block for each molecule: values may come before it.
Experiments:
in vivo = assay: in vivo
Experimental: The LC-MS analysis was conducted using a Waters Acquity UPLC I-Class system (Waters, USA) coupled with a Xevo TQ-XS mass spectrometer equipped with a heated electrospray ionization source. Chromatographic separation was carried out on an Acquity UPLC HSS T3 C18 column (2.1 mm × 50 mm, 1.8 μm) from Waters, USA, with a flow rate of 0.4 mL/min and a column oven temperature of 40°C. The mobile phase consisted of 0.1% aqueous formic acid (A) and acetonitrile (B). The gradient elution program was as follows: 0–2.0 min, 10%–60% B; 2.0–2.2 min, 60%–95% B; 2.2–3.2 min, 95% B; 3.2–3.5 min, 95%–10% B; and 3.5–5.5 min, 10% B. Mass spectrometric detection was conducted using both positive and negative ionization modes. The source parameters used were as follows: a spray voltage of 1.00 KV, capillary temperature set at 500°C, desolvation flow maintained at 1000 L/h, cone gas (nitrogen) flow at 150 L/h, and a cone voltage of 5 V. The collision energy and precursor to production transition m/z for each analyte are found in Table 1. The data acquisition was performed in multiple reaction monitoring (MRM) mode.
Subsequently, a volume of 400 μL of acetonitrile was added to a 100 μL plasma sample. The resulting mixture was subjected to vortexing for 1 minute and centrifuged at a force of 21367 g for 10 minutes at a temperature of 4°C. The resulting supernatant was subjected to evaporation, followed by reconstitution in a volume of 100 μL of 10% acetonitrile. This reconstituted solution was then centrifuged at a force of 21367 g, and subsequently, a volume of 4 μL of the resulting supernatant was used for UPLC-ESI-MS/MS analysis.
The study used six Bama miniature pigs (70 days old, weighing 20 ± 2 kg) obtained from the Experimental Animal Center, Shandong Lvdu Bio-Sciences and Technology Co., Ltd. (Binzhou, China). The pigs were housed under controlled conditions with a temperature of 25 ± 1°C, relative humidity of 65% ± 10%, and a 12/12 h light/dark cycle. The pigs were provided with standard pig feed and water ad libitum, in accordance with the guidelines outlined in the National Institutes of Health Guide for Care and Use of Laboratory Animals. […] Blood samples (0.5 mL each) were collected from the jugular vein of each pig into heparinized tubes at specific time intervals (0.5 h, 1.0 h, 4.0 h, 8.0 h, 12.0 h, 15.0 h, and 24.0 h) following intragastric administration. The blood sample was promptly subjected to centrifugation at a force of 3400 × g for 10 minutes. The resulting supernatant plasma was collected and preserved at a temperature of −80°C until subsequent preparation for LC-MS analysis. The concentration-time data of the analytes were evaluated using either noncompartmental or compartmental methods with the aid of the PKSolver 2.0 software package, and subsequently, pharmacokinetic parameters were computed. The outcomes are presented as the arithmetic mean accompanied by the standard deviation (SD).

[1] = design: method as in PMID 33217008; conditions: rats, oral 10 mg/kg obacunone; cited from earlier work
[2] = design: method as in PMID 34331552; conditions: rats, fruit of Tetradium ruticarpum and licorice extracts together; cited from earlier work
[3] = design: method as in PMID 28871816; conditions: rats, cited from earlier work
[4] = design: method as in PMID 10891884; conditions: beagle dogs, oral 300 mg of palmatine; cited from earlier work
[5] = Bama miniature, pig, in vivo, po
[6] = Bama miniature, pig, in vivo, po, C max
[7] = Bama miniature, pig, plasma, po, 1 mL/kg
[8] = Bama miniature, pig, plasma, po, 1 mL/kg, C max, pig plasma, single oral BTWD 1.0 mL/kg, n = 6, mean ± SD
[9] = pig plasma, oral BTWD 1.0 mL/kg
[10] = pig plasma, single oral BTWD 1.0 mL/kg, n = 6, mean ± SD
[11] = Bama miniature, pig, in vivo, po, 1 mL/kg

Structure (SMILES): CC1(C)OC(=O)C=C[C@]2(C)[C@H]3CC[C@@]4(C)[C@H](c5ccoc5)OC(=O)[C@H]5O[C@]54[C@]3(C)C(=O)C[C@@H]12 [Obacunone, obacunone]
- AUC0− inf (in vivo; [5]): 1146.51 ± 7.38 ng·h/mL
- AUC(0-t) (in vivo; [5]): 111 ± 3.9 ng·h/mL
- MRT (in vivo; [5]): 17.4 ± 3 h
- Tmax (in vivo; [5]): 3.49 ± 0.07 h
- half-life (in vivo; [5]): 0.88 ± 0.15 h
- Cmax (in vivo; [6]): 7.39 ± 0.71 ng/mL
- CL/F (in vivo; pig, in vivo, po): 0.37 ± 0.02 mL/h
- Cmax (in words) (in vivo; pig, in vivo, po): low Cmax
- MRT [1]: 4.30 ± 0.16 h
- Tmax [1]: 1 to 2 h
- MRT [2]: 4.90 ± 2.60 h
- Tmax [2]: 1.67 ± 0.29 h

Structure (SMILES): COc1cc2c(cc1O)-c1cc3ccc(OC)c(OC)c3c[n+]1CC2 [Columbamine, columbamine]
- AUC(0-inf) (in vivo; [7]): 31 ± 1.36 ng·h/mL
- AUC(0-t) (in vivo; [7]): 28.4 ± 1.31 ng·h/mL
- MRT (in vivo; [7]): 12.5 ± 2.8 h
- Tmax (in vivo; [7]): 12 h
- half-life (in vivo; [7]): 6.74 ± 5.08 h
- Cmax (in vivo; [8]): 3.8 ± 0.08 ng/mL
- Cmax (in words) (in vivo; pig plasma, oral BTWD): low Cmax
- concentration-time profile (shape) (in vivo; [9]): biphasic patterns
- plasma concentrations (in vivo; pig plasma, oral BTWD 1.0 mL/kg, upper bound stated in text): below 10.0 ng/mL
- CL/F (in vivo; [10]): 17.54 ± 0.76 mL/h

Structure (SMILES): O=c1ccc2cc(O[C@@H]3O[C@H](CO)[C@@H](O)[C@H](O)[C@H]3O)c(O)cc2o1 [Esculin, esculin]
- AUC(0-inf) (in vivo; [11]): 876 ± 124 ng·h/mL
- AUC(0-t) (in vivo; [11]): 531 ± 52.8 ng·h/mL
- Cmax (in vivo; [11]): 66.4 ± 1.91 ng/mL
- MRT (in vivo; [11]): 25.1 ± 1.91 h
- Tmax (in vivo; [11]): 1 h
- half-life (in vivo; [11]): 16.6 ± 1.48 h
- concentration-time profile (shape) (in vivo; [9]): biphasic patterns
- CL/F (in vivo; [10]): 3.25 ± 0.43 mL/h

Structure (SMILES): C=C(C)[C@@H]1CC[C@]2(C(=O)O[C@@H]3O[C@H](CO[C@@H]4O[C@H](CO)[C@@H](O[C@@H]5O[C@@H](C)[C@H](O)[C@@H](O)[C@H]5O)[C@H](O)[C@H]4O)[C@@H](O)[C@H](O)[C@H]3O)CC[C@]3(C)[C@H](CC[C@@H]4[C@@]5(C)CC[C@H](O[C@@H]6OC[C@H](O)[C@H](O)[C@H]6O[C@@H]6O[C@@H](C)[C@H](O)[C@@H](O)[C@H]6O)[C@@](C)(CO)[C@@H]5CC[C@]43C)[C@@H]12 [Pulchinenoside B4, pulchinenoside B4]
- absorption and elimination (in words) (in vivo; pig plasma, oral BTWD): rapidly absorbed and eliminated from the plasma
- concentration-time profile (shape) (in vivo; [9]): biphasic patterns
- AUC0− inf (in vivo; [10]): 2580.65 ± 89.09 ng·h/mL
- AUC0−t (in vivo; [10]): 2525.63 ± 87.16 ng·h/mL
- C max (in vivo; [10]): 276.70 ± 10.54 ng/mL
- CL/F (in vivo; [10]): 1.36 ± 0.05 mL/h
- MRT (in vivo; [10]): 9.57 ± 0.14 h
- T max (in vivo; [10]): 1.00 h
- t 1/2 (in vivo; [10]): 3.27 ± 0.17 h

Structure (SMILES): O=c1ccc2cc(O)c(O)cc2o1 [Esculetin, esculetin]
- AUC(0-inf) (in vivo; [7]): 994 ± 27.8 ng·h/mL
- AUC(0-t) (in vivo; [7]): 980 ± 26.4 ng·h/mL
- MRT (in vivo; [7]): 8.97 ± 0.08 h
- Tmax (in vivo; [7]): 4 h
- half-life (in vivo; [7]): 2.91 ± 0.08 h
- Cmax (in vivo; [8]): 78.1 ± 1.68 ng/mL
- concentration-time profile (shape) (in vivo; [9]): biphasic patterns
- C max (in vivo; [10]): 78.17 ± 1.68 ng/mL
- CL/F (in vivo; [10]): 0.76 ± 0.02 mL/h

Structure (SMILES): COc1cc2ccc(=O)oc2c(O)c1O [Fraxetin, fraxetin]
- AUC(0-inf) (in vivo; [5]): 159 ± 9.33 ng·h/mL
- AUC(0-t) (in vivo; [5]): 159 ± 9.33 ng·h/mL
- MRT (in vivo; [5]): 0.98 ± 0.01 h
- Tmax (in vivo; [5]): 0.49 ± 0.01 h
- half-life (in vivo; [5]): 0.33 h
- Cmax (in vivo; [6]): 119 ± 6.14 ng/mL
- absorption and elimination (in words) (in vivo; pig plasma, oral BTWD): rapidly absorbed and eliminated from the plasma
- concentration-time profile (shape) (in vivo; [9]): biphasic patterns
- CL/F (in vivo; [10]): 9.72 ± 0.56 mL/h

Structure (SMILES): COc1cc2ccc(=O)oc2c(O[C@@H]2O[C@H](CO)[C@@H](O)[C@H](O)[C@H]2O)c1O [Fraxin, fraxin]
- AUC(0-inf) (in vivo; [5]): 53.5 ± 2.78 ng·h/mL
- AUC(0-t) (in vivo; [5]): 53.2 ± 2.7 ng·h/mL
- MRT (in vivo; [5]): 1.07 ± 0.04 h
- Tmax (in vivo; [5]): 0.53 ± 0.02 h
- half-life (in vivo; [5]): 0.36 ± 0.01 h
- Cmax (in vivo; [6]): 36.8 ± 0.48 ng/mL
- absorption and elimination (in words) (in vivo; pig plasma, oral BTWD): rapidly absorbed and eliminated from the plasma
- CL/F (in vivo; [10]): 36.38 ± 1.84 mL/h

More lines, main results first:

- AUC(0-inf) (in vivo; [5]): 69.8 ± 1.42 ng·h/mL
- AUC(0-t) (in vivo; [5]): 59.88 ± 0.15 ng·h/mL
- MRT (in vivo; [5]): 14.3 ± 0.31 h
- Tmax (in vivo; [5]): 12 h
- half-life (in vivo; [5]): 5.7 ± 0.33 h
- plasma concentrations (in vivo; [5]): below 10.0 ng/mL
- Cmax (in vivo; [6]): 5.9 ± 0.15 ng/mL
- CL/F (in vivo; pig, in vivo, po): 6.56 ± 0.14 mL/h
- Cmax (in words) (in vivo; pig, in vivo, po): low Cmax
- concentration-time profile (shape) (in vivo; pig, in vivo, po): biphasic patterns
Structure (SMILES): c1c2c(cc3c1OCO3)-c1cc3ccc4c(c3c[n+]1CC2)OCO4 [Coptisine chloride, coptisine chloride]

- AUC(0-inf) (in vivo; [5]): 209 ± 13.6 ng·h/mL
- AUC(0-t) (in vivo; [5]): 202 ± 12.7 ng·h/mL
- MRT (in vivo; [5]): 11.07 ± 0.03 h
- Tmax (in vivo; [5]): 12 h
- half-life (in vivo; [5]): 3.14 ± 0.13 h
- Cmax (in vivo; [6]): 28.4 ± 0.83 ng/mL
- Cmax (in words) (in vivo; pig plasma, oral BTWD): low Cmax
- concentration-time profile (shape) (in vivo; [9]): biphasic patterns
- CL/F (in vivo; [10]): 14.82 ± 0.93 mL/h
Structure (SMILES): COc1ccc2cc3[n+](cc2c1OC)CCc1cc2c(cc1-3)OCO2 [Berberine, berberine]

- concentration at 12 h (in vivo; [5]): 5.79 ng/mL
Structure (SMILES): COc1cc2c(cc1OC)-c1cc3ccc(OC)c(OC)c3c[n+]1CC2 [palmatine]
- plasma concentration (in words) (in vivo; pig, in vivo, po): below the threshold required for the analysis of PK behavior
- Cmax ([3]; oral Coptis root granules): 2.14 ± 0.68 ng/mL
- Tmax ([3]; oral Coptis root granules): 0.36 ± 0.074 h
- Cmax ([3]; oral Shuanghua Baihe tablets): 2.50 ± 0.43 ng/mL
- Tmax ([3]; oral Shuanghua Baihe tablets): 3.22 ± 0.81 h
- Cmax [4]: 8 ng/mL
- Tmax [4]: 5 h

- AUC0− inf (in vivo; pig, in vivo, po): 73.39 ± 2.80 ng·h/mL
- AUC0−t (in vivo; pig, in vivo, po): 69.72 ± 2.62 ng·h/mL
- C max (in vivo; pig, in vivo, po): 8.18 ± 0.21 ng/mL
- CL/F (in vivo; pig, in vivo, po): 12.41 ± 0.47 mL/h
- Cmax (in words) (in vivo; pig, in vivo, po): low Cmax
- MRT (in vivo; pig, in vivo, po): 11.39 ± 0.14 h
- T max (in vivo; pig, in vivo, po): 12.00 h
- concentration-time profile (shape) (in vivo; pig, in vivo, po): biphasic patterns
- plasma concentrations (in vivo; pig, in vivo, po): below 10.0 ng/mL
- t 1/2 (in vivo; pig, in vivo, po): 3.81 ± 0.10 h
Structure (SMILES): COc1cc2c(cc1O)C[C@H]1c3cc(O)c(OC)cc3CC[N@@+]1(C)C2 [Phellodendrine, phellodendrine]
